Reference: US20140256664A1, “COMPOSITIONS AND METHODS FOR A MYCOBACTERIUM TUBERCULOSIS DRUG SUSCEPTIBILITY TEST” (priority 2011, published 2014)
Structures can show the parent of a compound that is named as a salt. Where two headings read alike, the source gives them in different places.

Legend:
Format in all cases: cell-based, Mycobacterium tuberculosis
[1] = tested on: 33 isolates of M. tuberculosis; details: for need for drug pre-treatment prior to phage incubation: Tb inoculum and phage added simultaneously, significant ΔCt in 24 hour
M. tuberculosis isolates [2] = tested on: M. tuberculosis isolates
[3] = tested on: M. tuberculosis in smear positive sputum sediments; details: total 22 sediments
M. tuberculosis isolates [4] = tested on: M. tuberculosis isolates; remark: listed apart in the source
[5] = tested on: M. tuberculosis H37Rv (ATCC 27294); assay: D29 phage-qPCR assay development on H37Rv; details: for duration of drug treatment at which qPCR Ct became clearly disparate from control: drug treatment followed by 24 h phage incubation, FIG. 1D
[6] = strains confirmed as drug susceptible by agar proportion

Compound | need for drug pre-treatment prior to phage incubation [1] | Culture R (n samples) ([3]; sediment phage assay result R) | Culture S (n samples) ([3]; sediment phage assay result R) | Culture R (n samples) ([3]; sediment phage assay result S) | Culture S (n samples) ([3]; sediment phage assay result S) | Agar proportion R (n isolates) (M. tuberculosis isolates [4]; phage assay result R) | Agar proportion S (n isolates) (M. tuberculosis isolates [4]; phage assay result R) | Agar proportion R (n isolates) (M. tuberculosis isolates [4]; phage assay result S) | Agar proportion S (n isolates) (M. tuberculosis isolates [4]; phage assay result S) | other results
NCC[C@H](O)C(=O)N[C@@H]1C[C@H](N)[C@@H](O[C@H]2O[C@H](CN)[C@@H](O)[C@H](O)[C@H]2O)[C@H](O)[C@H]1O[C@H]1O[C@H](CO)[C@@H](O)[C@H](N)[C@H]1O [Amikacin, amikacin] | no pre-treatment was required | – | – | – | – | – | – | – | – | D29 phage assay susceptible (n isolates) ([1]; listed as AMK): 31; Agar proportion susceptible (n isolates) (M. tuberculosis isolates [2]; listed as AMK): 31
N[C@@H]1CON=C1O [Cycloserine, D-cycloserine] | no pre-treatment was required | – | – | – | – | – | – | – | – | –
CC[C@@H](CO)NCCN[C@@H](CC)CO [Ethambutol, ethambutol hydrochloride] | – | 0 | 0 | 0 | 22 | 0 | 1 | 8 | 145 | D29 phage assay susceptible (n isolates) ([1]; listed as EMB, hydrochloride): 12; duration of drug treatment of Tb prior to 24 hours of phage incubation yielding optimal ΔCt [1, 6]: 48 h; Agar proportion susceptible (n isolates) (M. tuberculosis isolates [2]; listed as EMB, hydrochloride): 12
CCc1cc(C(N)=S)ccn1 [Ethionamide, ethionamide] | – | – | – | – | – | – | – | – | – | duration of drug treatment of Tb prior to 24 hours of phage incubation yielding optimal ΔCt [1]: 48 h
NNC(=O)c1ccncc1 [Isoniazid, isoniazid] | – | 1 | 3 | 0 | 18 | 22 | 9 | 5 | 118 | number of phage / real-time PCR Ct value after drug pre-treatment [5]: the number of phage did not increase/Ct value did not decrease; need for drug pre-treatment prior to phage incubation ([5]; H37Rv, FIG. 1E, 48 h superior to 24 h, 6 h and 3 h): pre-treatment was required; duration of drug treatment at which qPCR Ct became clearly disparate from control ([5]; H37Rv): 48 h
CC(=O)NC[C@H]1CN(c2ccc(N3CCOCC3)c(F)c2)C(=O)O1 [Linezolid, linezolid] | no pre-treatment was required | – | – | – | – | – | – | – | – | –
CO[C@H]1/C=C/O[C@@]2(C)Oc3c(C)c(O)c4c(O)c(c(/C=N/N5CCN(C)CC5)c(O)c4c3C2=O)NC(=O)/C(C)=C\C=C\[C@H](C)[C@H](O)[C@@H](C)[C@@H](O)[C@@H](C)[C@H](OC(C)=O)[C@@H]1C [Rifampin, rifampin] | – | 1 | 0 | 0 | 21 | 5 | 2 | 5 | 142 | number of phage / real-time PCR Ct value after drug pre-treatment [5]: the number of phage did not increase/Ct value did not decrease; ΔCtRIF (Ct control−Ct drug) [5]: −12; ΔCt ([5]; H37Rv pre-treated with drug for 72 hours, FIG. 1B): approximately −5; duration of drug treatment at which qPCR Ct became clearly disparate from control ([5]; H37Rv): 24 h; D29 phage assay susceptible (n isolates) ([1]; listed as RIF): 11; Agar proportion susceptible (n isolates) (M. tuberculosis isolates [2]; listed as RIF): 11
[H]/N=C(/N)N[C@H]1[C@H](O)[C@@H](O)[C@H](O[C@@H]2O[C@@H](C)[C@](O)(C=O)[C@H]2O[C@@H]2O[C@@H](CO)[C@H](O)[C@@H](O)[C@@H]2NC)[C@@H](N/C(N)=N\[H])[C@@H]1O [Streptomycin, streptomycin sulfate] | no pre-treatment was required | 1 | 0 | 1 | 20 | 16 | 0 | 3 | 135 | –
Nc1ccc(C(=O)O)c(O)c1 [para-aminosalicylic acid] | – | – | – | – | – | – | – | – | – | duration of drug treatment of Tb prior to 24 hours of phage incubation yielding optimal ΔCt [1, 6]: 48 h
capreomycin sulfate | no pre-treatment was required | – | – | – | – | – | – | – | – | D29 phage assay susceptible (n isolates) ([1]; listed as CAP): 30; Agar proportion susceptible (n isolates) (M. tuberculosis isolates [2]; listed as CAP): 31
